This is an account of results in patent publication EP0230023B1, “Pharmaceutical compositions for the enhancement of wound healing” (MARION MERRELL DOW INC., priority 1985, dated 1987).

In this assay the test system is fibroblasts. The assay is described as follows: Cell migration assay (Boyden chamber). It counts as cell-based. Also on record: Chemokinesis: scale not given here. On the procedure:
Stimulation of directed movement of fibroblasts was assayed as described by Banda M.J., Knighton D.R., Hunt T.K., Werb A., Isolation of a nonmitogenic angiogenesis factor from wound fluid, Proc. Natl. Acad. Sci. 79:7773-7777, 1982. Briefly, solutions of sucrose octasulfate in PBS in concentrations resulting in final concentrations ranging from 10 -² to 10 -⁷ g/ml diluted to a final volume of 300 µℓ in DMEM supplemented with 10 percent rabbit platelet-poor plasma serum were placed in the bottom of Boyden blind-well chambers. Polylysine-coated, 5 µ -pore diameter, polycarbonate filters (Nucleopore) were placed over the test solution and 1.75-3.0 x 10⁶ fibroblasts suspended in DMEM added to the top compartment. The chambers were incubated for two and a half hours at 37 °C,
At the end of incubation of the top filter was fixed, stained and evaluated by counting the number of cells that had migrated to the bottom side of the filter. For each experiment five random fields per filter and at least 15 filters per each concentration of sucrose octasulfate were conducted. […]

Each structure is given as a SMILES string.

Regarding `O=S(=O)([O-])OC[C@H]1O[C@@](COS(=O)(=O)[O-])(O[C@H]2O[C@H](COS(=O)(=O)[O-])[C@@H](OS(=O)(=O)[O-])[C@H](OS(=O)(=O)[O-])[C@H]2OS(=O)(=O)[O-])[C@@H](OS(=O)(=O)[O-])[C@@H]1OS(=O)(=O)[O-].[K+].[K+].[K+].[K+].[K+].[K+].[K+].[K+]` [Sucrose Octasulfate, potassium sucrose octasulfate], under “score, Boyden chamber, scale not defined, potassium salts”, the Chemokinesis is given as 4. Also, the “Migrated fibroblasts, fold increase over negative control” value reads like this: (sucrose octasulfate 10⁻² g/ml, 2.5 hours at 37 °C) 0.4 fold increase over negative control; (sucrose octasulfate 10⁻³ g/ml) 0.4 fold increase over negative control; (sucrose octasulfate 10⁻⁴ g/ml) 0.6 fold increase over negative control; (sucrose octasulfate 10⁻⁵ g/ml) 2.2 fold increase over negative control; (sucrose octasulfate 10⁻⁶ g/ml) 2.1 fold increase over negative control; (sucrose octasulfate 10⁻⁷ g/ml) 1.1 fold increase over negative control.
